Assay results from patent US7863465B2, “Antifungal agents” (Merck Sharp & Dohme Corp., priority 2006, dated 2011).

molecular target: T1, glucan synthase (GS) prepared from Candida albicans MY1055 (Candida albicans, UniProt O13428); assay: Glucan synthase inhibition (polymerization assay, 96-well, 3H-UDPG incorporation); assay type: biochemical; settings: glucan synthase from C. albicans MY1055
T1 construct: Extraction of GS activity from membranes was performed at a protein concentration of 5 mg/mL in extraction buffer; endogenous in cells; host or cells: Candida albicans MY1055 (membranes, detergent extract, product entrapment)
T1 sequence (O13428 1-1897): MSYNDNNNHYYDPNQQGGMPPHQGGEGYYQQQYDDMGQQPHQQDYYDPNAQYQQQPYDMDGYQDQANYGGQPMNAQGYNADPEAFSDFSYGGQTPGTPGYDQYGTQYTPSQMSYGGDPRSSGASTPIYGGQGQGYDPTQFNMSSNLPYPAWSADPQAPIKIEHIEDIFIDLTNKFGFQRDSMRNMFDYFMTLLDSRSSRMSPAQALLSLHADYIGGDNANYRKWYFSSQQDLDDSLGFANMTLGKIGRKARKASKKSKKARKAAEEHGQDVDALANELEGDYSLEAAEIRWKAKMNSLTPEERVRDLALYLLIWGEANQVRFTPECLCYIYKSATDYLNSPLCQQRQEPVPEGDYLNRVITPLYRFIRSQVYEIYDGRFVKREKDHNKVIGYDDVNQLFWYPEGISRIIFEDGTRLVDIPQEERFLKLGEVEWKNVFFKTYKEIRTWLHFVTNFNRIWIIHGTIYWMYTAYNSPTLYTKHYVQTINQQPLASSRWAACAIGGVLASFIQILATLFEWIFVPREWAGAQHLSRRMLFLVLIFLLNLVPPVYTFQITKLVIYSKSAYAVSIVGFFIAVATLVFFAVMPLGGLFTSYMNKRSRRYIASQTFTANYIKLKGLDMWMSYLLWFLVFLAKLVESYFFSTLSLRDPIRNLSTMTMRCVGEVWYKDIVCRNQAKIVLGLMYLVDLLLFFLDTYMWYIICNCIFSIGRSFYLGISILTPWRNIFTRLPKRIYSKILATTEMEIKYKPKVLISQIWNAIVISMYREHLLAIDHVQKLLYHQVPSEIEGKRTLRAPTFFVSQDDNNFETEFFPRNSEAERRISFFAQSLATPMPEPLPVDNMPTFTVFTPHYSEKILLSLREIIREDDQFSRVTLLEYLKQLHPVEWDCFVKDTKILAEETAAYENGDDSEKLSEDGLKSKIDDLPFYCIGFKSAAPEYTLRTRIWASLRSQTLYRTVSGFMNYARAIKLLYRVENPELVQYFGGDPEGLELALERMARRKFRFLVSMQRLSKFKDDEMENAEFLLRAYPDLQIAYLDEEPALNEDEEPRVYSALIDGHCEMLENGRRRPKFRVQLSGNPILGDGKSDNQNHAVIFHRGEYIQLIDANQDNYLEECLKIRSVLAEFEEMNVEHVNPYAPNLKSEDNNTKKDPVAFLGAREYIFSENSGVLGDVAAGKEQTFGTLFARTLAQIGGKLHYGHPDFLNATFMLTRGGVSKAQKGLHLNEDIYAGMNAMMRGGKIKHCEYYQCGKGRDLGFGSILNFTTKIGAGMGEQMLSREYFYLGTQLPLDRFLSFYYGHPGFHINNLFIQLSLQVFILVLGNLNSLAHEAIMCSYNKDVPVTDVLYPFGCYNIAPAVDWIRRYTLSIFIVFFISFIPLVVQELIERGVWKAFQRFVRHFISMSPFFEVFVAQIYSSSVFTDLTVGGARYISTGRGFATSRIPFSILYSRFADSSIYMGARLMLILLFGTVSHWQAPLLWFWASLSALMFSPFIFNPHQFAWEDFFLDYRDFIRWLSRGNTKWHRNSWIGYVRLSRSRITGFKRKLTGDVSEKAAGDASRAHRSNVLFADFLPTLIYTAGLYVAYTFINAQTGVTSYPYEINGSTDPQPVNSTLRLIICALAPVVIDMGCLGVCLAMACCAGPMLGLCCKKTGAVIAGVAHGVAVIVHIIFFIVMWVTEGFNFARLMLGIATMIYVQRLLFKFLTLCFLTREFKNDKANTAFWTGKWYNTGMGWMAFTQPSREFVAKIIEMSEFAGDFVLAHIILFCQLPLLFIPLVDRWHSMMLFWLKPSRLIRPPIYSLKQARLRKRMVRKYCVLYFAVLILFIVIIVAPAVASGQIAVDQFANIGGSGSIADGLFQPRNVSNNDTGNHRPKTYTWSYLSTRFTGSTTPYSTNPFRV
T1 sequence (O42825 whole entry partner): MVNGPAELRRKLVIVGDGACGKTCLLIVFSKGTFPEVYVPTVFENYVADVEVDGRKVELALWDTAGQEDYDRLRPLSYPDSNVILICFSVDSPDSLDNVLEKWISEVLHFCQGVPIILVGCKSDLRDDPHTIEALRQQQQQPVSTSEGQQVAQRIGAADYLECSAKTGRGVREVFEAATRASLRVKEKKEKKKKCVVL
Method: The in vitro evaluation of glucan synthase inhibitory activity of compounds was measured in a polymerization assay in 96-well format. Each well contained 100 μL of ^3H-UDPG at 0.5 mM (6000 to 8000 dpm/nmol), 50 mM HEPES pH 7.5 (Sigma), 10% w/v glycerol (Sigma), 1.5 mg/mL bovine serum albumin (Sigma A 9647. Lot 44H0190), 25 mM KF (Fisher), 1 mM EDTA (Gibco Ultrapure), 25 μM GTP-γ-S, enzyme sufficient to give 3 to 6 nmoles incorporation during the 60 min incubation at 22° C., and test compound added from wells in 3-fold serial dilutions in 100% DMSO (1 μL/well). The reaction was stopped by the addition of 100 μL of 20% trichloroacetic acid. Plates were chilled for a minimum of 10 min, and precipitated glucan collected by filtration on GF/C plates (Packard Unifilter®-96), washed with 5 cycles of water (about 1 mL/well each cycle) using a Packard Filtermate Harvester. 40 μL/well scintillation fluid (Packard Ultima Gold TM-XR) was added and the sealed plates counted in a Wallac Beta counter in top-counting mode at an efficiency of approximately 40%.
Stock solutions were stored at 10 mg/mL in DMSO at −20° C. For each new enzyme preparation, the initial titration performed started at 1 mg/mL, which was prepared by making a 10-fold dilution in DMSO (5 μL to 50 μL). 40 μL of this stock was placed in column 12 of a round-bottomed 96-well microtiter plate. 40 μL DMSO was added to columns 1 to 11 in the same row and ten 3-fold serial dilutions performed, by transferring 20 μL from column 12 to column 11 etc., with 4 mixings before each transfer. No test compound was transferred to from column 2 to column 1. Duplicate aliquots of 1 μL of all 12 dilutions were then transferred to the side walls of a 96-well Bioblock 1.1 mL plate (Fisherbrand) to create two rows.
The results were tabulated and a standard plate background was subtracted and the net count transpose-pasted into a Prism file, with final compound concentrations used in ng/mL. Graphs were created in Prism software, using the average of two determinations, and using Prism's curve fitting program (sigmoidal dose response non-linear regression).
Routine analysis was performed with glucan synthase (GS) prepared from Candida albicans MY1055 by the following procedure: MY1055 was grown in 10 liters YPD medium (10 g yeast extract, 20 g tryptone, 20 g glucose per liter) with vigorous shaking at 30° C., to early stationary phase. Cells were harvested by centrifugation, the pellet was washed and frozen at −70° C. until breakage. Thawed pellets were shaken with an equal volume of breakage buffer (50 mM HEPES pH 7.4, 10% glycerol, 1 mM EDTA, 1 mM PMSF, 1 mM DTT) and 4 times their weight of 0.5 mm acid washed glass beads for 2 hours at 4° C. Extent of breakage was assessed visually at 40× magnification. For C. parapsilosis strains, shaking was extended to 3 hours to maximize breakage. After low speed centrifugation to remove cell debris, the supernatant was centrifuged at 100,000×g for 60 min. to separate membranes plus ribosomes from cytoplasmic components. Membranes were further washed two additional times with breakage buffer using the same centrifugation conditions and finally suspended in breakage buffer at 25 to 30 mg/mL protein (Biorad) for storage at −70° C. Extraction of GS activity from membranes was performed at a protein concentration of 5 mg/mL in extraction buffer (50 mM NaPO4 pH 7.5, 0.1 M KCl, 0.1M Na citrate, 20% glycerol, 5 μM GTP-γ-S, 1 mM DTT, 1 mM PMSF, 3 μg/mL pepstatin) plus 0.25% W1 by gentle mixing at 4° C. for 60 min, followed by centrifugation at 100,000×g for 60 min. After centrifugation, clear supernatant was removed from a pellet consisting of a hard layer usually with small amounts of gelatinous unextracted membranes above it. […]

SMILES	IC50 [nM]
CC(=O)O[C@@H]1C[C@@]23COC[C@](C)([C@@H]2CC[C@H]2C3=CC[C@@]3(C)[C@H](C(=O)O)[C@@](C)([C@H](C)C(C)C)CC[C@]23C)[C@H]1OCCNC(=O)C(N)CN (stereo partly drawn) [Example 5, (1S,2R,3R,4aR,6aS,7R,8R,10aR,10bR,12aR)-3-(acetyloxy)-2-[2-(2,3-diaminopropionylamino)-ethoxy]-8-[(1R)-1,2-dimethylpropyl]-1,6a,8,10a-tetramethyl-1,3,4,6,6a,7,8,9,10,10a,10b,11,12,12a-tetradecahydro-2H-1,4a-(methanooxymethano)chrysene-7-carboxylic acid]	126
CC(=O)O[C@@H]1C[C@@]23COC[C@](C)([C@@H]2CC[C@H]2C3=CC[C@@]3(C)[C@H](C(=O)O)[C@@](C)([C@H](C)C(C)C)CC[C@]23C)[C@H]1OCCNC(=N)N [Example 6, (1S,2R,3R,4aR,6aS,7R,8R,10aR,10bR,12aR)-3-(acetyloxy)-2-(2-guanidino-ethoxy)-8-[(1R)-1,2-dimethylpropyl]-1,6a,8,10a-tetramethyl-1,3,4,6,6a,7,8,9,10,10a,10b, 11,12,12a-tetradecahydro-2H-1,4a-(methanooxymethano)chrysene-7-carboxylic acid]	19.5
CC(=O)O[C@@H]1C[C@@]23COC[C@](C)(C2CC[C@H]2C3=CC[C@@]3(C)[C@H](C(=O)O)[C@@](C)([C@H](C)C(C)C)CC[C@]23C)[C@H]1OCCNC[C@@H](N)CCCCN (stereo partly drawn) [Example 21, (1S,2R,3R,4aR,6aS,7R,8R,10aR,10bR,12aR)-3-(acetyloxy)-2-[2-((S)-2,6-diaminohexylamino)-ethoxy]-8-[(1R)-1,2-dimethylpropyl]-1,6a,8,10a-tetramethyl-1,3,4,6,6a,7,8,9,10,10a,10b,11,12,12a-tetradecahydro-2H-1,4a-(methanooxymethano)chrysene-7-carboxylic acid]	59.6
CC(=O)O[C@@H]1C[C@@]23COC[C@](C)(C2CC[C@H]2C3=CC[C@@]3(C)[C@H](C(=O)O)[C@@](C)([C@H](C)C(C)C)CC[C@]23C)[C@H]1OCCNC(=N)NC(C)(C)C (stereo partly drawn) [Example 24, (1S,2R,3R,4aR,6aS,7R,8R,10aR,10bR,12aR)-3-(acetyloxy)-2-[2-(N′-tert-butylguanidino)-ethoxy]-8-[(1R)-1,2-dimethylpropyl]-1,6a,8,10a-tetramethyl-1,3,4,6,6a,7,8,9,10,10a,10b,11,12,12a-tetradecahydro-2H-1,4a-(methanooxymethano)chrysene-7-carboxylic acid]	32.7
CC(=O)O[C@@H]1C[C@@]23COC[C@@](C)([C@@H]2CC[C@H]2C3=CC[C@@]3(C)[C@H](C(=O)O)[C@@](C)([C@H](C)C(C)C)CC[C@]23C)[C@H]1OCCCN [Example 35, (1S,2R,3R,4aR,6aS,7R,8R,10aR,10bR,12aR)-3-(acetyloxy)-2-(3-aminopropoxy)-8-[(1R)-1,2-dimethylpropyl]-1,6a,8,10a-tetramethyl-1,3,4,6,6a,7,8,9,10,10a,10b,11,12,12a-tetradecahydro-2H-1,4a-(methanooxymethano)chrysene-7-carboxylic acid]	47.6
CC(=O)O[C@@H]1C[C@@]23COC[C@](C)(C2CC[C@H]2C3=CC[C@@]3(C)[C@H](C(=O)O)[C@@](C)([C@H](C)C(C)C)CC[C@]23C)[C@H]1OCCCCN (stereo partly drawn) [Example 40, (1S,2R,3R,4aR,6aS,7R,8R,10aR,10bR,12aR)-3-(acetyloxy)-2-(4-aminobutoxy)-8-[(1R)-1,2-dimethylpropyl]-1,6a,8,10a-tetramethyl-1,3,4,6,6a,7,8,9,10,10a,10b,11,12,12a-tetradecahydro-2H-1,4a-(methanooxymethano)chrysene-7-carboxylic acid]	51.5
CC(=O)O[C@@H]1C[C@@]23COC[C@](C)([C@@H]2CC[C@H]2C3=CC[C@@]3(C)[C@H](C(=O)O)[C@@](C)([C@H](C)C(C)C)CC[C@]23C)[C@H]1OCC(O)(CO)CO [Example 44, (1S,2R,3R,4aR,6aS,7R,8R,10aR,10bR,12aR)-3-(acetyloxy)-2-(2,3-dihydroxy-2-hydroxymethylpropoxy)-8-[(1R)-1,2-dimethylpropyl]-1,6a,8,10a-tetramethyl-1,3,4,6,6a,7,8,9,10,10a,10b,11,12,12a-tetradecahydro-2H-1,4a-(methanooxymethano)chrysene-7-carboxylic acid]	616
CC(=O)O[C@@H]1C[C@@]23COC[C@](C)([C@@H]2CC[C@H]2C3=CC(=O)[C@@]3(C)[C@H](C(=O)O)[C@@](C)([C@H](C)C(C)C)CC[C@]23C)[C@H]1OCCN [Example 47, (1S,2R,3R,4aR,6aS,7R,8R,10aR,10bR,12aR)-3-(acetyloxy)-2-(2-aminoethoxy)-8-[(1R)-1,2-dimethylpropyl]-1,6a,8,10a-tetramethyl-6-oxo-1,3,4,6,6a,7,8,9,10,10a,10b,11,12,12a-tetradecahydro-2H-1,4a-(methanooxymethano)chrysene-7-carboxylic acid]	78.3

Other lines, results leading:

IC50 [nM]	SMILES
81.9	CC(=O)O[C@@H]1C[C@@]23COC[C@](C)([C@@H]2CC[C@H]2C3=CC[C@@]3(C)[C@H](C(=O)O)[C@@](C)([C@H](C)C(C)C)CC[C@]23C)[C@H]1OCCN [Example 1, (1S,2R,3R,4aR,6aS,7R,8R,10aR,10bR,12aR)-3-(acetyloxy)-2-(2-aminoethoxy)-8-[(1R)-1,2-dimethylpropyl]-1,6a,8,10a-tetramethyl-1,3,4,6,6a,7,8,9,10,10a,10b,11,12,12a-tetradecahydro-2H-1,4a-(methanooxymethano)chrysene-7-carboxylic acid]
39.1	CC(=O)O[C@@H]1C[C@@]23COC[C@](C)(C2CC[C@H]2C3=CC[C@@]3(C)[C@H](C(=O)O)[C@@](C)([C@H](C)C(C)C)CC[C@]23C)[C@H]1OCC(C)N (stereo partly drawn) [Example 2, (1S,2R,3R,4aR,6aS,7R,8R,10aR,10bR,12aR)-3-(Acetyloxy)-2-(2-aminopropoxy)-8-[(1R)-1,2-dimethylpropyl]-1,6a,8,10a-tetramethyl-1,3,4,6,6a,7,8,9,10,10a,10b,11,12,12a-tetradecahydro-2H-1,4a-(methanooxymethano)chrysene-7-carboxylic acid]
25.4	CC(=O)O[C@@H]1C[C@@]23COC[C@](C)([C@@H]2CC[C@H]2C3=CC[C@@]3(C)[C@H](C(=O)O)[C@@](C)([C@H](C)C(C)C)CC[C@]23C)[C@H]1OCCNCCCN [Example 8, (1S,2R,3R,4aR,6aS,7R,8R,10aR,10bR,12aR)-3-(acetyloxy)-2-[2-(3-aminopropylamino)-ethoxy]-8-[(1R)-1,2-dimethylpropyl]-1,6a,8,10a-tetramethyl-1,3,4,6,6a,7,8,9,10,10a,10b,11,12,12a-tetradecahydro-2H-1,4a-(methanooxymethano)chrysene-7-carboxylic acid]
28.6	CC(=O)O[C@@H]1C[C@@]23COC[C@](C)([C@@H]2CC[C@H]2C3=CC(=O)[C@@]3(C)[C@H](C(=O)O)[C@@](C)([C@H](C)C(C)C)CC[C@]23C)[C@H]1OCCNC(=N)N [Example 48, (1S,2R,3R,4aR,6aS,7R,8R,10aR,10bR,12aR)-3-(acetyloxy)-2-(2-guanidinoethoxy)-8-[(1R)-1,2-dimethylpropyl]-1,6a,8,10a-tetramethyl-6-oxo-1,3,4,6,6a,7,8,9,10,10a,10b,11,12,12a-tetradecahydro-2H-1,4a-(methanooxymethano)chrysene-7-carboxylic acid]
